# Test results as given in US7452887B2, “Quinoline- and isoquinoline-based compounds exhibiting ATP-utilizing enzyme inhibitory activity, and compositions, and uses thereof” (Amphora Discovery Corporation, priority 2004, dated 2008).
# What was measured:
# Assay in all cases: HTS ATP-utilizing enzyme assay, off-chip mobility-shift (Caliper HTS 250)
# Format in all cases: biochemical
# Conditions in all cases: test compound 10 μM, kinase listed = active (greater than six-sigma from the mean activity of inactive compounds)
# [1] = target: MAPKAPK2 (Homo sapiens, UniProt P49137)
# MAPKAPK2, sequence (P49137 whole entry): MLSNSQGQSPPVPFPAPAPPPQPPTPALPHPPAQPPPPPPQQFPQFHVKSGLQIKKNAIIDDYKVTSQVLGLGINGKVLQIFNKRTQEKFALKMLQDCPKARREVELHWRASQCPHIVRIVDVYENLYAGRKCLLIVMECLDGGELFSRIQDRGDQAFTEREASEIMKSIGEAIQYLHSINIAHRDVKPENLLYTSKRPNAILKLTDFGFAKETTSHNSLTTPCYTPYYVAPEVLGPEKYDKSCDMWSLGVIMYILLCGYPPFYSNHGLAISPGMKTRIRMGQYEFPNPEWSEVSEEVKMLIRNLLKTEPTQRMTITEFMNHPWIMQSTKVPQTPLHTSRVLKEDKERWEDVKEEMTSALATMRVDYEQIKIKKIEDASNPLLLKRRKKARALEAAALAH
# Outline: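 Phosphorylation of a peptide substrate was quantified by Caliper mobility-shift separation of substrate and product after 2.5 h at 20-22 °C, with compounds tested at 10 μM. Inhibition was normalized to EDTA-quenched (100%) and DMSO (0%) controls; six-sigma thresholds flagged actives.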
# [2] = target: PDGFR-α (Homo sapiens, UniProt P16234)
# PDGFR-α, sequence (P16234 24-1089): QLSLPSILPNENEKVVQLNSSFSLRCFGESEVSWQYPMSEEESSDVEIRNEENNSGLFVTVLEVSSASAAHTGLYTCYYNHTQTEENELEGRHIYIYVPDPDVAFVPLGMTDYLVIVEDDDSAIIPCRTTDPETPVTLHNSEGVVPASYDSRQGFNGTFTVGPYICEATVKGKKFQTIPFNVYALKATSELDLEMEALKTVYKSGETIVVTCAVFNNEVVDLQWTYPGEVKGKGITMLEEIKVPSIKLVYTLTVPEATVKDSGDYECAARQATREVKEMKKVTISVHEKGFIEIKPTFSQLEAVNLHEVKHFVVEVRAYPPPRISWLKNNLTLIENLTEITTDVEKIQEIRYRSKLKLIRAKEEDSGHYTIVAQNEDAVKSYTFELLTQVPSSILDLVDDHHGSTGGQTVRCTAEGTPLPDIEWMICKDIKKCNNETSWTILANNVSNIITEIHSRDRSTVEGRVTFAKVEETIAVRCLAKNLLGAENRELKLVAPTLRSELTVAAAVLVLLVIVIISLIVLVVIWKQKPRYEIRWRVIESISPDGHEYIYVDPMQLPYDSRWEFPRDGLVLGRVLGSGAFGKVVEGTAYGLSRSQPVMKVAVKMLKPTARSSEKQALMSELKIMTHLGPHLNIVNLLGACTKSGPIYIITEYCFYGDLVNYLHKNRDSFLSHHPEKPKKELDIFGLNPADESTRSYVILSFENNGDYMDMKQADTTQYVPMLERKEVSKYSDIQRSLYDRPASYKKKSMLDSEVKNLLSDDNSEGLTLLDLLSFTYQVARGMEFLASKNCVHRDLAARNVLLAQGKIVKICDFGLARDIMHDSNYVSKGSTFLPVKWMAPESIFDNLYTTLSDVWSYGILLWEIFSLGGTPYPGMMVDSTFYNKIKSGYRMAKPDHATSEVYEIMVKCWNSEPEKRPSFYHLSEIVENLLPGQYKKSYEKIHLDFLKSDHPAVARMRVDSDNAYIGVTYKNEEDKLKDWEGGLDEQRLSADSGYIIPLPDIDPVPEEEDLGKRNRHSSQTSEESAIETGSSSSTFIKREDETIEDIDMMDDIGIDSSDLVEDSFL
# Outline: (§1)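 Single-point screen, 10 μM compound; kinase + peptide substrate, HEPES pH 7.5/Triton X-100/BSA; 2.5 hrs, 20–22° C.; EDTA stop. Readout: substrate vs phosphoproduct ratio by off-chip mobility shift. Hits called at six-sigma limits.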
# [3] = target: T1, FLT-3 (Homo sapiens, UniProt P36888)
# T1 sequence (P36888 27-993): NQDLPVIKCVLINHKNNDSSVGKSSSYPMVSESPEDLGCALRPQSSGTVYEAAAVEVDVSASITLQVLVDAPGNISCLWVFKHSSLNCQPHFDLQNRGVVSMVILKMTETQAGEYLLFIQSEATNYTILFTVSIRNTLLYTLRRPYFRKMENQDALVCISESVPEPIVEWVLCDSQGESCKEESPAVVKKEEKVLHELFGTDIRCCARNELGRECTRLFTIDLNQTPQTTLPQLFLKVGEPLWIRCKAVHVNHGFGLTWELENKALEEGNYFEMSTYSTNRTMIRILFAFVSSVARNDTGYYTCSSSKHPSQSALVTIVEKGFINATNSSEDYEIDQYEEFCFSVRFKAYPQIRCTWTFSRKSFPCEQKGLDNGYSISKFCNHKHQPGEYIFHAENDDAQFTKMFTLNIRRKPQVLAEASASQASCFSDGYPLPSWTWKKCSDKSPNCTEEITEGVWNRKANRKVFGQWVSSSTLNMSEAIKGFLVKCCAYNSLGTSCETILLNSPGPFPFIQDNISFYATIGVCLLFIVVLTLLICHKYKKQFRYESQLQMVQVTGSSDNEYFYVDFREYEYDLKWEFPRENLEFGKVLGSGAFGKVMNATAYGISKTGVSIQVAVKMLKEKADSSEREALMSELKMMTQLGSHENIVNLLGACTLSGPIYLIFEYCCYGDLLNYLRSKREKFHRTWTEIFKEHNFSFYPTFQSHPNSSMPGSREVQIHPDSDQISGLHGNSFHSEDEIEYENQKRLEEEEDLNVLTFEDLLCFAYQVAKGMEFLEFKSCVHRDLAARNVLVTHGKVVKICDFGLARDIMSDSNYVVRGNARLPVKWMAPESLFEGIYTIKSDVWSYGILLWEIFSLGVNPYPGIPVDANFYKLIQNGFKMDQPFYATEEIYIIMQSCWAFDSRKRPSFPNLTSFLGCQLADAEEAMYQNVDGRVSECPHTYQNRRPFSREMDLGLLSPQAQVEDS
# Outline: as §1
# [4] = target: LCK (Homo sapiens, UniProt P06239)
# LCK, sequence (P06239 whole entry): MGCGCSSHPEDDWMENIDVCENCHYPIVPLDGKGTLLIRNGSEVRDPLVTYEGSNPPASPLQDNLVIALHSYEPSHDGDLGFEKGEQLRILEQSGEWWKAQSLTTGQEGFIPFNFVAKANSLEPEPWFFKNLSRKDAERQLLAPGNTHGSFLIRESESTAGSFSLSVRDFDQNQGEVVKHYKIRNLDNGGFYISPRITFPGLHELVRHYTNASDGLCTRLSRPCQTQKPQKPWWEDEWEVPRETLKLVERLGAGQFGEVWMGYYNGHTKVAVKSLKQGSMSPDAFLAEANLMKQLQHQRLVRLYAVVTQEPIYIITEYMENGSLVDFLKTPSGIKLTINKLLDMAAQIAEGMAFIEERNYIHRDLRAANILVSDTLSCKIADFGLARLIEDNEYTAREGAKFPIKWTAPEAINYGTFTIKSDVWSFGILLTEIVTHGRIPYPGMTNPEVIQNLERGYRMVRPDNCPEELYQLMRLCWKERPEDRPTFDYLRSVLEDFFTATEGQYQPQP
# Outline: as §1
# [5] = target: SRC (Homo sapiens, UniProt P12931)
# SRC, sequence (P12931 whole entry): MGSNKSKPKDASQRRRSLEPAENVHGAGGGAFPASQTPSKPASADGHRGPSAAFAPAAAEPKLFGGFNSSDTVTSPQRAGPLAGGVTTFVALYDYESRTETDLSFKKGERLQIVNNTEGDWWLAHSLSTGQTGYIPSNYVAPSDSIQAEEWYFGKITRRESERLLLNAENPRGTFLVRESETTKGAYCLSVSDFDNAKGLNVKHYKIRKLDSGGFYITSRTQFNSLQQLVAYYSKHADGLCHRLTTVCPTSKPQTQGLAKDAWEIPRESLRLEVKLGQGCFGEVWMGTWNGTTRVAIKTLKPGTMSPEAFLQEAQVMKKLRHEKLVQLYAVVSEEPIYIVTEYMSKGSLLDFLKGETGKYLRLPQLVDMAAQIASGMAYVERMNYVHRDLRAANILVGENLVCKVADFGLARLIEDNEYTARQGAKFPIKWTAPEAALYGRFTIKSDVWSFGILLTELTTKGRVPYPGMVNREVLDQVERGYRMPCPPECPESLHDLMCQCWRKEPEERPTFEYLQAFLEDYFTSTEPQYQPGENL
# Outline: as §1
# [6] = target: T2, PRAK (Homo sapiens, UniProt Q8IW41)
# T2 sequence (Q8IW41 1-473): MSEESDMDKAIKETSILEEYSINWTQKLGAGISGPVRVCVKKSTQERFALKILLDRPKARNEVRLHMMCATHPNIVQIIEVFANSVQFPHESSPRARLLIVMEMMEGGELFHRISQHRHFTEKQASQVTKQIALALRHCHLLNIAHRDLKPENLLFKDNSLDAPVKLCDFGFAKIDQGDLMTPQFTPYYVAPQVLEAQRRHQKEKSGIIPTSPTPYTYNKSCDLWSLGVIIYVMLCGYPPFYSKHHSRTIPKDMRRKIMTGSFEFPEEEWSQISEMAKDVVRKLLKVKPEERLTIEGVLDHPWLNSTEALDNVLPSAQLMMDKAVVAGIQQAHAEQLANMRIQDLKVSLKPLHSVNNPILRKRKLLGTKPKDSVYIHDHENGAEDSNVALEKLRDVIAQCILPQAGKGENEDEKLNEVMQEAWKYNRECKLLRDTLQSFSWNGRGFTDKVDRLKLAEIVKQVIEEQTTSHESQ
# Outline: as §1
# [7] = target: AKT3 (Homo sapiens, UniProt Q9Y243)
# Outline: as §1
# [8] = target: ABL1 (Homo sapiens, UniProt P00519)
# ABL1, sequence (P00519 whole entry): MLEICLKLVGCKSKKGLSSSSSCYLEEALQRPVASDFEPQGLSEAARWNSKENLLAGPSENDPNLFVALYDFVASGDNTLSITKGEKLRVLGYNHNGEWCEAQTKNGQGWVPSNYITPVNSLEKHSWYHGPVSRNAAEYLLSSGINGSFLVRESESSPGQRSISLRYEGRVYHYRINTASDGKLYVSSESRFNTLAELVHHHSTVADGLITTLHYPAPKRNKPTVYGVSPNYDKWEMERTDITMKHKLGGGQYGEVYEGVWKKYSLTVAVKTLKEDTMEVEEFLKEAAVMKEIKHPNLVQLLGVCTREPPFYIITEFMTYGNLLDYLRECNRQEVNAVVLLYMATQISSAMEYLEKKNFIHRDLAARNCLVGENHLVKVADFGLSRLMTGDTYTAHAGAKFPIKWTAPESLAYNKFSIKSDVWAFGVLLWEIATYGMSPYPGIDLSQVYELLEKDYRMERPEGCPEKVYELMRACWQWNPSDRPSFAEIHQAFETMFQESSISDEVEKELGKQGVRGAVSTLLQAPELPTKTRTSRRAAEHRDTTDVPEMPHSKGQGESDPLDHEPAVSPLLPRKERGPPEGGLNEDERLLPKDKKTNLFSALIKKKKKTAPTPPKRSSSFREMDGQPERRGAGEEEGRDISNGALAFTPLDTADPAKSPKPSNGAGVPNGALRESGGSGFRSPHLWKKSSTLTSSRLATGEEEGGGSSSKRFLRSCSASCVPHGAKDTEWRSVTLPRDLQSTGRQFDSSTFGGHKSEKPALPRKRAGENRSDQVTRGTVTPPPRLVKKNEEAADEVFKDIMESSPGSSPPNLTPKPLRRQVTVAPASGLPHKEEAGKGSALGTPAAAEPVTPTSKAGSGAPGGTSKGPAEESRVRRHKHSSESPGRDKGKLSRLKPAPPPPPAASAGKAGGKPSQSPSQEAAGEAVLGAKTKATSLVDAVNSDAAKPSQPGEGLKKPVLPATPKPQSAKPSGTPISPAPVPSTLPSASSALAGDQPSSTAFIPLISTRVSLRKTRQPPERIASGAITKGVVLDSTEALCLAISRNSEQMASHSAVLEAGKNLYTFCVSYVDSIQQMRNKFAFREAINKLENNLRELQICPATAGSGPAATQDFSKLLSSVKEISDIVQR
# Outline: as §1
# [9] = target: LYNA (Homo sapiens, UniProt P07948)
# LYNA, sequence (P07948 whole entry): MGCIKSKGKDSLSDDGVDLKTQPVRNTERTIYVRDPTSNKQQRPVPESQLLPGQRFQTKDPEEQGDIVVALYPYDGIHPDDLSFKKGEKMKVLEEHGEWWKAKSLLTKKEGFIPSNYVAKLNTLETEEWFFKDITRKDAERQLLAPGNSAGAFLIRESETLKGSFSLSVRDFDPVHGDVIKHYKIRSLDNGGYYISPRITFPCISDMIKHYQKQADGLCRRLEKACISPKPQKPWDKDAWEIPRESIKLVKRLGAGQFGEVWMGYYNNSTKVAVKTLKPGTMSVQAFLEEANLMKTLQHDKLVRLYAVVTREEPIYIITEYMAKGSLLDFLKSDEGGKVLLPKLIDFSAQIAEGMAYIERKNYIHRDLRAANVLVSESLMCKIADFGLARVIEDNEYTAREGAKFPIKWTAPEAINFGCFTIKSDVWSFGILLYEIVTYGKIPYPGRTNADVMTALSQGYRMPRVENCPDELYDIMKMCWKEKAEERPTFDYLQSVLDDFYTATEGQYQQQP
# Outline: as §1
# [10] = target: C-TAK1 (Homo sapiens, UniProt P27448)
# C-TAK1, sequence (P27448 whole entry): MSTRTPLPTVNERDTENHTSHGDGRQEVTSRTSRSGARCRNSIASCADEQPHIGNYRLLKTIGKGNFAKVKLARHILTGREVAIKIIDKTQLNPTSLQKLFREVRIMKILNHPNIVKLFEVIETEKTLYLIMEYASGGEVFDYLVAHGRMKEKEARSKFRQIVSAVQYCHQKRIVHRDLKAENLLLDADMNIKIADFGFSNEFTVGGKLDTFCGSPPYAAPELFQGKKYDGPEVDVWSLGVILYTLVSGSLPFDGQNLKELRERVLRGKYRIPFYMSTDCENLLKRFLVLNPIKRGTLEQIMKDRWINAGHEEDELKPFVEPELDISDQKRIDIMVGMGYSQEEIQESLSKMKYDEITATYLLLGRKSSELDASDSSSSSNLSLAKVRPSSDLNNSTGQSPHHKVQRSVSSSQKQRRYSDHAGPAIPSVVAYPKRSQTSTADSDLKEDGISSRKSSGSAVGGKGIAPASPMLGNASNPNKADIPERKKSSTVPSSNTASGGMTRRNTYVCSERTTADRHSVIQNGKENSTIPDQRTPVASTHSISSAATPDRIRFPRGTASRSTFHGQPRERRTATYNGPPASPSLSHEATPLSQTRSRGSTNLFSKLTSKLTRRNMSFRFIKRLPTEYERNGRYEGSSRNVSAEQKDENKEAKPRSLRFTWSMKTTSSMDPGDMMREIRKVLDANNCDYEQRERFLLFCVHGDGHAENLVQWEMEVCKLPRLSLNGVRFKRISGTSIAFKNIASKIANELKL
# Outline: as §1
# [11] = target: T3, BMX (Homo sapiens, UniProt P51813)
# T3 sequence (P51813 1-675): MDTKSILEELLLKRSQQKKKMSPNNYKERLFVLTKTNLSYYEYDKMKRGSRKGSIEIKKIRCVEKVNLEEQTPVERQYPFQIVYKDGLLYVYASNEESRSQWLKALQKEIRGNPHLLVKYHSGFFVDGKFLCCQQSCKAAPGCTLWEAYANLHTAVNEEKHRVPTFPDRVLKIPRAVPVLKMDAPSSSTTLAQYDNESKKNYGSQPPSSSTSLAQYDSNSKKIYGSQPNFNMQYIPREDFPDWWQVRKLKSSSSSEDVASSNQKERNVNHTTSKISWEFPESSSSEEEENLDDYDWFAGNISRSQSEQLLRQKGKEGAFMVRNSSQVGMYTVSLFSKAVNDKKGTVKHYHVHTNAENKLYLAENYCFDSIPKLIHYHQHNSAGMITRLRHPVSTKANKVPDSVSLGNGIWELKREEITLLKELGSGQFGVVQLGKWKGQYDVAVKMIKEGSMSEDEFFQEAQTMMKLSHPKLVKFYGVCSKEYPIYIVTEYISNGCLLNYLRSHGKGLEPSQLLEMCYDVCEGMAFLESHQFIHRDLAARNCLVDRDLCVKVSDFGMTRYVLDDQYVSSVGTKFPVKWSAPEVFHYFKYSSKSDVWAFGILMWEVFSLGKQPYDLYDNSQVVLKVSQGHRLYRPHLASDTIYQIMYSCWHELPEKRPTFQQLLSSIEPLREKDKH
# Outline: as §1
# [12] = target: T4, NEK2 (Homo sapiens, UniProt P51955)
# T4 sequence (P51955 1-445): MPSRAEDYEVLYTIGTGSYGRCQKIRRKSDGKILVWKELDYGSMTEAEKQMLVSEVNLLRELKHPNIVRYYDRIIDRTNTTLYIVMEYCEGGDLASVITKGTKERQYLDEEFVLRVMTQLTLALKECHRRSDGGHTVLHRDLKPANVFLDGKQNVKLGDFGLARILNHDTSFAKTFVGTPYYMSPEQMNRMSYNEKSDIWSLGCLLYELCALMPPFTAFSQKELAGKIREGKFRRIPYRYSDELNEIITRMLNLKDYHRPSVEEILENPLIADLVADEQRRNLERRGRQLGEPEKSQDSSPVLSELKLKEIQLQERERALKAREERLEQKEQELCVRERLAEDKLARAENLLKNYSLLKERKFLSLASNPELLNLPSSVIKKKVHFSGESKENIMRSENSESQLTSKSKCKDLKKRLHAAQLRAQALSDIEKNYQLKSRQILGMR
# Outline: as §1
Activity [1],Activity [5],Activity [6],Activity [8],Activity [10],Compound,other results
MAPKAPK2,–,–,–,–,COc1ccc(-c2ccc3nccc(Nc4ccc(N5CCN(CC(=O)O)CC5)cc4)c3c2)cc1 [2-(4-(4-(6-(4-methoxyphenyl)quinolin-4-ylamino)phenyl)piperazin-1-yl)acetic acid],Activity [2]: PDGFR-α
MAPKAPK2,–,–,–,–,O=C(O)CN1CCN(c2ccc(Nc3ccnc4ccc(-c5ccccc5)cc34)cc2)CC1 [2-(4-(4-(6-phenylquinolin-4-ylamino)phenyl)piperazin-1-yl)acetic acid],Activity [2]: PDGFR-α; Activity [3]: FLT-3
MAPKAPK2,SRC,PRAK,ABL1,–,CN1CCN(c2ccc(Nc3ccnc4ccc(-c5cccc(O)c5)cc34)cc2)CC1 [3-(4-(4-(4-methylpiperazin-1-yl)phenylamino)quinolin-6-yl)phenol],Activity [4]: LCK; Activity [7]: AKT3
MAPKAPK2,–,PRAK,–,C-TAK1,"CN1CCN(c2ccc(Nc3ccnc4ccc(-c5cccc(Cl)c5Cl)cc34)cc2)CC1 [6-(2,3-dichlorophenyl)-N-(4-(4-methylpiperazin-1-yl)phenyl)quinolin-4-amine]",Activity [9]: LYNA
–,SRC,–,–,C-TAK1,CN1CCN(c2ccc(Nc3ccnc4ccc(-c5ccc(OCc6ccccc6)cc5)cc34)cc2)CC1 [6-(4-(benzyloxy)phenyl)-N-(4-(4-methylpiperazin-1-yl)phenyl)quinolin-4-amine],Activity [11]: BMX
MAPKAPK2,SRC,–,–,C-TAK1,CN1CCN(c2ccc(Nc3ccnc4ccc(-c5cc6ccccc6s5)cc34)cc2)CC1 [6-(benzo[b]thiophen-2-yl)-N-(4-(4-methylpiperazin-1-yl)phenyl)quinolin-4-amine],–
MAPKAPK2,–,PRAK,ABL1,–,CN1CCN(c2ccc(Nc3ccnc4ccc(-c5csc6ccccc56)cc34)cc2)CC1 [6-(benzo[b]thiophen-3-yl)-N-(4-(4-methylpiperazin-1-yl)phenyl)quinolin-4-amine],–
–,–,PRAK,ABL,–,CN1CCN(c2ccc(Nc3ccnc4ccc(-c5ccccc5-c5ccccc5)cc34)cc2)CC1 [6-(biphenyl-2-yl)-N-(4-(4-methylpiperazin-1-yl)phenyl)quinolin-4-amine],Activity [12]: NEK2; Activity [4]: LCK; Activity [9]: LYNA
